Read-outs that look alike come from different tables or passages of the source.
Tests used:
herpes simplex virus 1 = experiment: in vitro antiviral activity, serial dilution, herpes simplex virus type 1; type: cell-based; conditions: Human alphaherpesvirus 1, read-out: concentration at which active against herpes simplex virus 1
Procedure: (§1) Antiviral activity was determined in vitro by the conventional serial dilution technique against selected virus species such as herpes simplex virus types 1 and 2. In vivo antiviral activity was determined against herpes virus in the mouse genital model and the guinea pig skin infection model.

herpes simplex type 2 = experiment: in vivo antiviral activity, mouse genital model; parameters: species or system mice
Procedure: as §1

[1] = system: herpes simplex virus type 2; experiment: in vitro antiviral activity, serial dilution, herpes simplex virus type 2; type: cell-based; conditions: Human alphaherpesvirus 2
Procedure: as §1

Trypanosoma brucei [2] = type: in vivo, mice; conditions: for curative effect against T. brucei infection: mice, oral
Procedure: (§2) Trypanosomacidal activity was determined against Trypanosoma brucei in mice. In a curative test medication was given (orally or parenterally) as a single dose or daily in equally subdivided doses eight hours apart for four days beginning 72 hours after intraperitoneal infection. In a prophylactic-suppressive test the total daily medication was given as a single treatment one day prior to infection, and thereafter for three consecutive days the total daily medications were administered as equally subdivided doses eight hours apart. The infection was uniformly fatal in five to six days in the absence of therapy. Chemotherapeutic effectiveness was based on extension of survival time. Tests were considered terminated 28 days after infection.

C. albicans = experiment: in vitro antimicrobial activity, serial dilution, C. albicans; type: cell-based; conditions: Candida albicans, read-out: MIC, fungistatic activity against C. albicans
Procedure: (§3) The antimicrobial activity of the compounds was determined in vitro by the conventional serial dilution technique against several species of bacteria and fungi, e.g. S. aureus, S. pyogenes, C. albicans, T. mentagrophytes.

T. mentagrophytes = experiment: in vitro antimicrobial activity, serial dilution, T. mentagrophytes; type: cell-based; conditions: Trichophyton mentagrophytes, read-out: MIC, fungistatic activity against T. mentagrophytes
Procedure: as §3

S. pyogenes = experiment: in vitro antimicrobial activity, serial dilution, S. pyogenes; type: cell-based; conditions: Streptococcus pyogenes, read-out: minimum inhibitory concentration (MIC), bacteriostatic activity against S. pyogenes
Procedure: as §3

S. aureus = experiment: in vitro antimicrobial activity, serial dilution, S. aureus; type: cell-based; conditions: Staphylococcus aureus, read-out: minimum inhibitory concentration (MIC), bacteriostatic activity against S. aureus
Procedure: as §3

Endameba criceti = experiment: amebicidal activity in infected hamsters; type: in vivo; conditions: Mesocricetus auratus, 72 h, oral, read-out: dose at which active orally against Endameba criceti in hamsters
Procedure: Amebicidal activity was determined by oral administration of the test compound orally to hamsters infected with Endameba criceti and the amount of drug necessary to clear the animals of infection in three days was determined.

[3] = system: influenza virus A2 /Jap 170; experiment: influenza virus titers in ferret nasal washings; type: in vivo; conditions: 100-200 mg/kg/day
[4] = system: herpes simplex virus type 1; experiment: in vivo antiviral activity, guinea pig skin infection model; conditions: after 48 hours of topical treatment
Procedure: as §1

[5] = system: six herpes simplex strains; experiment: plaque count reduction, six herpes simplex strains; type: cell-based, herpes simplex virus; conditions: at 4-10 mg./ml.
Trypanosoma brucei [6] = experiment: prophylactic-suppressive test against Trypanosoma brucei infection in mice; type: in vivo; conditions: oral, 50 mg per kg per day
Procedure: as §2

[7] = in vitro, read-out: concentration at which active against herpes simplex virus 2
[8] = read-out: concentration at which active in vitro against herpes simplex virus type 2
[9] = concentration at which active, read-out: antiviral activity against herpes type 2

In the case of `Cn1c2ccccc2c(=O)c2c(OCCN3CCCCC3)cccc21` [Example 33, 1-[2-(1-Piperidyl)ethoxy]-10-methyl-9(10H)-acridinone], the minimal effective concentration (herpes simplex virus 1) is reported as 6 µg/mL.
For `Cn1c2ccccc2c(=O)c2cc(OCCN3CCCC3)ccc21` [Example 7, 2-[2-(1-Pyrrolidyl)ethoxy]-10-methyl-9(10H)-acridinone], the “effect against herpes virus 2 genital infection in mice” value (herpes simplex type 2; mice, genital infection) was “effective”, the minimal effective concentration (herpes simplex virus 1) was 6 µg/mL and the minimal effective concentration [1, 7] was 6 µg/mL.
Compound `CN1CCN(CCOc2ccc3c(c2)c(=O)c2ccccc2n3C)CC1` [Example 9, 2-[2-(4-Methyl-1-piperazinyl)ethoxy]-10-methyl-9(10H)-acridinone] has a minimal effective concentration (herpes simplex virus 1) of 25 µg/mL and a minimal effective concentration [1, 7] of 25 µg/mL.
`Cn1c2ccccc2c(=O)c2cc(OCCN3CCOCC3)ccc21` [Example 8, 2-[2-(4-Morpholinyl)ethoxy]-10-methyl-9(10H)-acridinone] gave a minimal effective concentration (herpes simplex virus 1) of 25 µg/mL and a minimal effective concentration [1, 7] of 25 µg/mL.
For `CCN(CC)CCOc1ccc2c(c1)C(O)(c1ccccc1)c1ccccc1N2C` (stereo not drawn) [Example 38, 2-(2-Diethylaminoethoxy)-9,10-dihydro-10-methyl-9-phenyl-9-acridinol], the “curative effect against T. brucei infection” value (Trypanosoma brucei [2]; 50 mg/kg/day×4) was “completely effective”.
With `COc1ccc2c(c1)c(Cc1ccccc1)c1ccc(OCCN(C)C)cc1[n+]2C.Cl.[Cl-]` [Example 87, 3-(2-Dimethylaminoethoxy)-7-methoxy-10-methyl-9-benzylacridinium chloride hydrochloride] the “effect against T. brucei” value (Trypanosoma brucei [2]; 200 mg/kg/day×4, route and test type not given) was “ineffective” and the minimal effective concentration [1, 8] was 12 µg/mL.
With `CN(C)CCOc1ccc2c(c1)c(Cc1ccccc1)c1ccc(Cl)cc1[n+]2C.Cl.[Cl-]` [Example 86, 2-(2-Dimethylaminoethoxy)-6-chloro-10-methyl-9-benzylacridinium chloride hydrochloride] the MIC (C. albicans) was 15.6 µg/mL, the MIC (T. mentagrophytes) was 31.3 µg/mL and the MIC (S. pyogenes) was 7.8 µg/mL. The “curative effect against T. brucei infection” value (Trypanosoma brucei [2]; 50 mg/kg/day×4) was “ineffective”, the “toxicity to the animals in the oral curative test” value (Trypanosoma brucei [2]; mouse, in vivo, po, 200 mg/kg/day) was “toxic to the animals” and the minimal effective concentration [1, 9] was 12 µg/mL.
In the case of `CN(C)CCOc1ccc2c(c1)c(-c1ccccc1)c1ccccc1[n+]2C.Cl.[Cl-]` [Example 68, 2-(2-Dimethylaminoethoxy)-10-methyl-9-phenylacridinium chloride hydrochloride], the “curative effect against T. brucei infection” value (Trypanosoma brucei [2]; 25 mg/kg/day×4) is reported as “completely effective”, the “toxicity upon parenteral administration” value (Trypanosoma brucei [2]; mouse, in vivo) is reported as “toxic” and the “curative effect against T. brucei infection, parenteral” value (Trypanosoma brucei [2]; parenteral, 50 mg/kg dose level) is reported as “some curative effect”.
For `CN(C)CCOc1ccc2c(c1)c(=O)c1ccccc1n2C` [Example 1, 2-(2-Dimethylaminoethoxy)-10-methyl-9(10H)-acridinone], the minimal effective concentration [1, 8] was 3 to 6 µg/mL.
With `CN(C)CCOc1ccc2c(c1)c(Cc1cccc(F)c1)c1ccccc1[n+]2C.Cl.[Cl-]` [Example 84, 2-(2-Dimethylaminoethoxy)-10-methyl-9-(3-fluorobenzyl)acridinium chloride hydrochloride] the MIC (S. aureus; in vitro) was 15.6 µg/mL, the MIC (S. pyogenes) was 15.6 µg/mL and the “curative effect against T. brucei infection” value (Trypanosoma brucei [2]; 200 mg/kg/day×4) was “completely effective”.
`CN(C)CCOc1ccc2c(c1)c(Cc1ccc(Cl)cc1)c1ccccc1[n+]2C.Cl.[Cl-]` [Example 83, 2-(2-Dimethylaminoethoxy)-10-methyl-9-(4-chlorobenzyl)acridinium chloride hydrochloride] was tested, and the MIC (S. aureus; in vitro) was 7.8 µg/mL, the “curative effect against T. brucei infection” value (Trypanosoma brucei [2]; 200 mg/kg/day×4) was “ineffective” and the minimal effective concentration [1, 9] was 25 µg/mL.
With `Cn1c2ccccc2c(=O)c2cccc(OCCN3CCCCC3)c21` [Example 15, 4-[2-(1-Piperidyl)ethoxy]-10-methyl-9(10H)-acridinone] the minimal effective concentration [1, 7] was 12 µg/mL.
`CN1C2CCCC1CC(Oc1cccc3c1c(=O)c1ccccc1n3C)C2` (stereo not drawn) [Example 34, exo-1-(9-Methylgranatanin-3-yloxy)-10-methyl-9(10H)-acridinone] gave a minimal effective concentration (herpes simplex virus 1) of 25 µg/mL and a minimal effective concentration [1, 7] of 25 µg/mL.
`CN(C)CCCOc1ccc2c(Cc3ccccc3)c3ccccc3[n+](C)c2c1.Cl.[Cl-]` [Example 82, 3-(3-Dimethylaminopropoxy)-10-methyl-9-benzylacridinium chloride hydrochloride] was tested, and the MIC (S. aureus; in vitro) was 31.3 µg/mL and the “curative effect against T. brucei infection” value (Trypanosoma brucei [2]; 100 mg/kg/day×4) was “completely effective”.
With `CN(C)CCOc1ccc2c(c1)c(Cc1ccccc1)c1ccccc1[n+]2C.Cl.[Cl-]` [Example 78, 2-(2-Dimethylaminoethoxy)-10-methyl-9-benzylacridinium chloride hydrochloride] the “curative effect against T. brucei infection” value (Trypanosoma brucei [2]; 100 mg/kg/day×4) was “completely effective” and the minimal effective dose (Endameba criceti) was 100 mg/kg.
For `CN(C)CCOc1cccc2c1c(=O)c1ccccc1n2C` [Example 27, 1-(2-Dimethylaminoethoxy)-10-methyl-9(10H)-acridinone], the “reduction in influenza virus A2 /Jap 170 titers in ferret nasal washings” value [3] was “significant reduction”, the “survival in mice with genital herpes simplex type 2 infection” value (herpes simplex type 2; concentrations ranging from 2.5 to 10%) was 50-90% and the minimal effective concentration (herpes simplex virus 1) was 6 µg/mL. The “reduction of virus titer of herpes simplex virus type 1 in guinea pig skin infection” value [4] was “more than 99%”, the “reduction of the plaque counts of six herpes simplex strains” value [5] was “at least 50%” and the minimal effective concentration [1, 7] was 6 µg/mL.
With `Cc1ccc(Cc2c3ccccc3[n+](C)c3ccc(OCCN(C)C)cc23)cc1.Cl.[Cl-]` [Example 80, 2-(2-Dimethylaminoethoxy)-10-methyl-9-(4-methylbenzyl)acridinium chloride hydrochloride] the MIC (S. aureus) was 15.6 µg/mL, the MIC (S. pyogenes) was 7.8 µg/mL and the “curative effect against T. brucei infection” value (Trypanosoma brucei [2]; 200 mg/kg/day×4) was “ineffective”.
`CN(C)CCOc1ccc2c(Cc3ccccc3)c3ccccc3[n+](C)c2c1.Cl.[Cl-]` [Example 81, 3-(2-Dimethylaminoethoxy)-10-methyl-9-benzylacridinium chloride hydrochloride] was tested, and the MIC (S. aureus; in vitro) was 31.3 µg/mL, the MIC (S. pyogenes) was 31.3 µg/mL and the “curative effect against T. brucei infection” value (Trypanosoma brucei [2]; 100 mg/kg/day×4) was “completely effective”.
Work on `Cn1c2ccccc2c(=O)c2cc(OCCN3CCCCC3)ccc21` [Example 10, 2-[2-(1-Piperidyl)ethoxy]-10-methyl-9(10H)-acridinone] yielded a minimal effective concentration (herpes simplex virus 1) of 6 µg/mL.
Work on `Cn1c2ccccc2c(=O)c2cccc(OCCN3CCCC3)c21` [Example 13, 4-[2-(1-Pyrrolidyl)ethoxy]-10-methyl-9(10H)-acridinone] yielded a minimal effective concentration [1, 7] of 12 µg/mL.
For `CCN(CC)CCOc1ccc2c(c1)c(Cc1ccccc1)c1ccccc1[n+]2C.Cl.[Cl-]` [Example 85, 2-(2-Diethylaminoethoxy)-10-methyl-9-benzylacridinium chloride hydrochloride], the MIC (S. aureus; in vitro) was 31.3 µg/mL, the MIC (S. pyogenes) was 31.3 µg/mL and the “curative effect against T. brucei infection” value (Trypanosoma brucei [2]; 100 mg/kg/day×4) was “completely effective”.
`COc1ccc(C2(O)c3ccccc3N(C)c3ccc(OCCN(C)C)cc32)cc1` (stereo not drawn) [Example 65, 2-(2-Dimethylaminoethoxy)-9,10-dihydro-9-(4-methoxyphenyl)-10-methyl-9-acridinol] was tested, and the “curative effect against T. brucei infection” value (Trypanosoma brucei [2]; 200 mg/kg/day×4) was “completely effective”.
`Cn1c2ccccc2c(=O)c2cc(OCCCCN3CCCC3)ccc21` [Example 16, 2-[4-(1-Pyrrolidyl)butoxy]-10-methyl-9(10H)-acridinone] gave a minimal effective concentration (herpes simplex virus 1) of 6 µg/mL and a minimal effective concentration [1, 7] of 6 µg/mL.
For `CN(C)CCOc1ccc2c(c1)c(Cc1ccc(F)cc1)c1ccccc1[n+]2C.Cl.[Cl-]` [Example 79, 2-(2-Dimethylaminoethoxy)-10-methyl-9-(4-fluorobenzyl)acridinium chloride hydrochloride], the “curative effect against T. brucei infection” value (Trypanosoma brucei [2]; 200 mg/kg/day×4) was “completely effective” and the minimal effective dose (Endameba criceti) was 100 mg/kg.
Work on `CCn1c2ccccc2c(=O)c2cc(OCCN3CCCC3)ccc21` [Example 11, 2-[2-(1-Pyrrolidyl)ethoxy]-10-ethyl-9(10H)-acridinone] yielded a minimal effective concentration (herpes simplex virus 1) of 25 µg/mL and a minimal effective concentration [1, 7] of 25 µg/mL.
In the case of `CN(C)CCOc1ccc2c(c1)C(O)(c1ccccc1)c1ccccc1N2C` (stereo not drawn) [Example 37, 2-(2-Dimethylaminoethoxy)-9,10-dihydro-10-methyl-9-phenyl-9-acridinol], the “prophylactic effect against T. brucei infection” value (Trypanosoma brucei [6]) is reported as “completely effective”, the “effect against T. brucei infection, intramuscular” value (Trypanosoma brucei [2]; intramuscularly, single dose of 200 mg/kg three days after infection) is reported as “completely effective” and the “effect against T. brucei infection, intraperitoneal” value (Trypanosoma brucei [2]; intraperitoneally, single dose of 200 mg/kg three days after infection) is reported as “completely effective”. The “curative effect against T. brucei infection” value (Trypanosoma brucei [2]; 25 mg/kg/day×4) was “completely effective” and the “effect against T. brucei infection, subcutaneous” value (Trypanosoma brucei [2]; subcutaneously, single dose of 200 mg/kg three days after infection) was “completely effective”.
